Data from patent US4432984A, “Anti-hypertensive benzodioxan derivatives” (Bouchara; Emile, priority 1981, dated 1984).
Counter-ions that a name gives are not always drawn.

What was measured:
central nervous system = assay: Effects on the central nervous system in mice; format: in vivo; conditions: oral, same dosages which induce an anti-hypertensive activity in rats
Excerpt: Such central effects may be directly related to the hypotensive action.

[1] = Acute toxicity in mice by the oral route; conditions: mouse, in vivo, per os, read-out: Approximate lethal dose 50 (LD50)
Method: Toxicity was determined in mice by the oral route.

Structure (SMILES)	aggressiveness (central nervous system)	experimentally-induced sleep (central nervous system)	sedation (central nervous system)	LD50 [1]
O=C(c1ccc(F)cc1)C1CCN(CC2COc3ccccc3O2)CC1 (centres unmarked) [Example 2, 1-[(2,3-Dihydro-4H-1,4-benzodioxin)-2-ylmethyl]-4-(4-fluorobenzoyl)piperidine hydrochloride]	a decrease of the aggressiveness	a potentiation of the experimentally-induced sleep	a state of sedation	495 to 655 mg/kg
O=C(Oc1ccc(C(=O)C2CCN(CC3COc4ccccc4O3)CC2)cc1)c1cccnc1 (centres unmarked) [Example 8, 1-[(2,3-Dihydro-4H-1,4-benzodioxin)-2-ylmethyl]-4-(4-hydroxybenzoyl)piperidine nicotinate]	–	–	–	> 3200 mg/kg
